Laboratory results reported in patent US12502382B2, “EPAC1 inhibitors for the treatment of idiopathic pulmonary fibrosis” (INSERM (Institut National de la Santé et de la Recherche …, priority 2019, dated 2025).

Experiments:
Epac2 = Epac2 (Homo sapiens, UniProt Q8WZA2); conditions: Laudette et al. 2019; cited from earlier work
[1] = test system: mouse model of bleomycin-induced pulmonary fibrosis; assay: qPCR of marker mRNA in lung and RV tissues of bleomycin-challenged mice; assay type: in vivo
Protocol: Intratracheal bleomycin animal model. All of the animal experiments and handling were performed in accordance with NIH Guide for the Care and Use of Laboratory Animals. Animals were anesthetized by IP injection of xylazine/ketamine and were secured to a tray in the supine position. After intubation, the board was tilted at 45 degrees, and the IA-1C Microsprayer tip (PennCentury, Wyndmoor, PA) was inserted through the lumen of the angiocath. Animals were subjected to a single intratracheal injection of BLM (50 μL; 4 U/Kg) for 28 days. The pharmacological inhibitor of Epac1, AM-001, was injected intraperitoneally every alternate day (10 mg/kg) for 2 weeks.
(§1) Total RNA was isolated using TRIzol™ (Invitrogen) and purified using RNeasy mini columns (Qiagen), according to the manufacturer's instructions. The cDNA synthesis kit (Applied Biosystems, Foster City, CA) was used to synthesized cDNA, as described by the manufacturer. Quantitative RT-PCR was performed using the PerfeCTa SYBR™ Green FastMix kit (Quantabio, Beverly, MA) and specific primers against the indicated genes, according to the manufacturer's instructions. Fold changes in gene expression were determined using the relative comparison method with normalization to GAPDH as an internal loading control.
Using a therapeutic strategy, mice were randomly allocated to a sham control-treated group that received intratracheal saline and PF group that received a single intratracheal aerosolization of BLM (4 U/kg). After 2 weeks, the BLM-challenged group was randomly assigned to receive either a vehicle or the Epac1 inhibitor AM-001 for two weeks (FIG. 4A). Vehicle or AM-001 was injected intraperitoneally every alternate day (10 mg/kg) for 2 weeks. […] To further investigate the potential therapeutic effect of Epac1 inhibition in PF, the interstitial fibrosis level and the vascular remodeling were next evaluated by histological analysis after 2 weeks of treatment. […] The inventors also measured by RT-qPCR the expression of several markers of fibrosis in the lung samples.

[2] = test system: mouse model of bleomycin-induced pulmonary fibrosis; assay: Hemodynamics and RV hypertrophy in bleomycin-induced pulmonary fibrosis mouse model; assay type: in vivo; conditions: 10 mg/kg i.p. every alternate day for 2 weeks
Protocol: Intratracheal bleomycin animal model. […] Animals were anesthetized by IP injection of xylazine/ketamine and were secured to a tray in the supine position. After intubation, the board was tilted at 45 degrees, and the IA-1C Microsprayer tip (PennCentury, Wyndmoor, PA) was inserted through the lumen of the angiocath. Animals were subjected to a single intratracheal injection of BLM (50 μL; 4 U/Kg) for 28 days.
Heart hemodynamic studies. The mice were anesthetized with (2-4%) isoflurane, intubated via tracheotomy, and mechanically ventilated with 1-2% isoflurane and oxygen (tidal volume, 6 mL/kg; respiratory rate, 100 breaths per minute). The thoracic cavity was opened, and the organs were accessed through a sternotomy. Once the pericardium was opened, and the heart was fully accessible, an ultrasonic flow probe (flow probe 2.5S176; Transonic Systems Inc., Ithaca, NY) was inserted into the RV to collect the right ventricular systolic pressure (RVSP). Hemodynamic data were recorded using a Scisense PV Control Unit (Scisense, Ontario, Canada).
Right Ventricular Weight Measurement. After the hemodynamic data were collected, the mice were harvested to collect the heart and lungs. […] The Fulton Index was calculated by the weight ratio of the RV weight to the LV plus septum weight (RV weight/LV+Septum weight) to specifically illustrate the RV hypertrophy. […]

Epac1 = target: T1, Epac1 (Homo sapiens, UniProt O95398); conditions: Laudette et al. 2019; cited from earlier work
T1 sequence (O95398 1-923): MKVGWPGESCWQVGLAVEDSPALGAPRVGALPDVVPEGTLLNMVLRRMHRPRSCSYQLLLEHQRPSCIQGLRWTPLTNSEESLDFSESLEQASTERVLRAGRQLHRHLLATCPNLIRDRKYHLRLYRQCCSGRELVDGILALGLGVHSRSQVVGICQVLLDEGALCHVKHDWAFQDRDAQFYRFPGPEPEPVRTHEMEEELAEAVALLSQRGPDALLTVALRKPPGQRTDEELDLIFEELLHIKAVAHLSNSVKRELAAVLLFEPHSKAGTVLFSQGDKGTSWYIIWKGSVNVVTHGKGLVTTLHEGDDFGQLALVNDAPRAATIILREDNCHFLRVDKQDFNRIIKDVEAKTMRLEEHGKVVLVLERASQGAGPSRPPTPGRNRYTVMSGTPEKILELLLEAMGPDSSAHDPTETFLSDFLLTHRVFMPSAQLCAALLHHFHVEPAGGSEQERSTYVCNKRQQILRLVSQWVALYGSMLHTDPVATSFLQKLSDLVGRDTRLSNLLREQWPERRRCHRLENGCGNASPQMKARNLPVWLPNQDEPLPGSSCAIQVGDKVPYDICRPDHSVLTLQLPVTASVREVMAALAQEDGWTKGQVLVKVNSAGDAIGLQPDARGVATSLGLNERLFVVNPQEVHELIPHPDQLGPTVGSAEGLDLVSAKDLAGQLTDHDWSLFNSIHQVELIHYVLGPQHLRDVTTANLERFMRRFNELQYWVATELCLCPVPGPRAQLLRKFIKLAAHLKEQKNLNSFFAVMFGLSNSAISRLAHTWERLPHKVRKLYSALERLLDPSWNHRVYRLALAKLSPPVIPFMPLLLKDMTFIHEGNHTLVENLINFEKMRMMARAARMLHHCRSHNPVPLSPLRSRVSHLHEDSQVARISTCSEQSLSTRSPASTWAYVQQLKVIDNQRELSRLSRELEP

protein kinase A (PKA) = conditions: Laudette et al. 2019; cited from earlier work
IPF fibroblasts [3] = assay: qPCR of IL-6, α-SMA and FOXO3 mRNA in IPF fibroblasts; assay type: cell-based, human; conditions: 20 μM for 48 h
Protocol: (§2) Cell Culture. Normal human lung fibroblast (NHLF) and lung fibroblast from IPF patients were purchased from Lonza, Inc. (Allendale, NJ) and cultured as recommended in FGM-2 medium supplemented with 5% fetal bovine serum (FBS) in 5% CO2 at 37° C. and passaged at the confluence. All the cell lines were tested by the manufacturers and negative for HIV-1, HBV, HCV, mycoplasma, bacteria, yeast, and fungi.
as §1

[4] = test system: fibrosis markers (COL1, COL3, CTGF, TGFβ) in NHLF cells; assay: qPCR of TGF-β1-induced fibrosis marker mRNA in NHLF; assay type: cell-based, human; conditions: TGF-β1 2 ng/mL 48 hrs, inhibitor 20 μM 48 hrs
Protocol: as §2
(§3) Pharmacological treatment. Cells were seeded at 250,000 cells/well in 6-well plates and maintained in a 37° C. incubator with 5% CO2 for 24 hrs prior to use. Cells were treated with TGF-β1 (2 ng/mL; 48 hrs) alone or in combination with either Epac1 inhibitor CE3F4 (20 μM; 48 hrs) or AM-001 (20 μM; 48 hrs).
as §1

[5] = test system: myocardial I/R injury and chronic β-AR activation; conditions: Laudette et al. 2019; cited from earlier work
[6] = test system: Normal human lung fibroblast (NHLF); assay: BrdU proliferation assay in normal human lung fibroblasts; assay type: cell-based; conditions: TGFβ treatment and serum stimulation (0.1% or 5% FBS), 48 hours, inhibitor 20 μM
Protocol: as §2, §3
(§4) The proliferation of NHLFs was measured by 5-bromo-2′-deoxyuridine (BrdU) incorporation using the Cell Proliferation ELISA, BrdU (colorimetric) assay (Roche, Indianapolis, IN), according to the manufacturer's instructions.

IPF fibroblasts [7] = assay: Immunoblot of phospho-SMAD2/3, phospho-STAT3, phospho-AKT in IPF fibroblasts; assay type: cell-based, human; conditions: IPF fibroblast
Protocol: as §2
SDS-PAGE and Immunoblot Analysis. Protein lysates were prepared using RIPA lysis buffer (Boston BioProducts) containing a Protease/Phosphatase Inhibitor Cocktail (Pierce). After centrifugation for 20 min at 15000×g, the protein concentrations were determined using a bicinchoninic acid (BCA) assay (Sigma-Aldrich). The proteins were then separated by SDS-polyacrylamide gel electrophoresis and transferred to polyvinylidene difluoride membranes. The membranes were blocked with 5% Skim milk and hybridized overnight at 4° C. with the following primary antibodies: Epac1 (Cell signaling), phospho-SMAD2/3 (Cell signaling), phospho-STAT3 (Cell signaling), phospho-AKT (Cell signaling), Total AKT (Cell signaling), and GAPDH (Thermofisher). The membranes were then incubated with the appropriate secondary HRP-conjugated antibody (Cell signaling) for 1 hour, and the blots were developed using the ECL System (Thermofisher).

IPF fibroblasts [8] = assay: BrdU proliferation assay in IPF fibroblasts; assay type: cell-based, human; conditions: basal condition, preliminary data
Protocol: as §2, §4

[9] = test system: mouse model of bleomycin-induced pulmonary fibrosis; assay: Histology (Masson's trichrome, H&E, WGA) in bleomycin-induced pulmonary fibrosis mouse model; assay type: in vivo
Protocol: Intratracheal bleomycin animal model. […] Animals were anesthetized by IP injection of xylazine/ketamine and were secured to a tray in the supine position. After intubation, the board was tilted at 45 degrees, and the IA-1C Microsprayer tip (PennCentury, Wyndmoor, PA) was inserted through the lumen of the angiocath. Animals were subjected to a single intratracheal injection of BLM (50 μL; 4 U/Kg) for 28 days. The pharmacological inhibitor of Epac1, AM-001, was injected intraperitoneally every alternate day (10 mg/kg) for 2 weeks.
Hematoxylin & Eosin and Masson's trichrome staining. Lung tissue was harvested, inflated with PBS/OCT (50:50), and fixed (frozen in −80° C.) in OCT. Sections were cut to 8 μm and adhered to colorfrost glass slides (ThermoFisher). Lung tissue sections were stained with hematoxylin and eosin (H&E) and Masson's trichrome (Sigma-Aldrich) and visualized using light microscopy. The medial thickness and collagen deposition were then quantified using ImageJ software.
RV sections were fixed in 1% paraformaldehyde (PFA) and stained using fluorescence-tagged wheat germ agglutinin (WGA) (Invitrogen) overnight at 4° C. and imaged with on Zeiss Observer Z.1 microscope (Carl Zeiss) at ×160 magnification. The outlines of cardiac myocytes were traced, and the cardiomyocyte area was calculated using ImageJ software.

[10] = prevents its use for in vivo applications; cited from earlier work
[11] = BLM+AM-001 vs BLM+vehicle, WT mice
[12] = BLM-challenged mice, 10 mg/kg i.p. every alternate day for 2 weeks

Chain of Epac2 (Q8WZA2 whole entry, species assumed): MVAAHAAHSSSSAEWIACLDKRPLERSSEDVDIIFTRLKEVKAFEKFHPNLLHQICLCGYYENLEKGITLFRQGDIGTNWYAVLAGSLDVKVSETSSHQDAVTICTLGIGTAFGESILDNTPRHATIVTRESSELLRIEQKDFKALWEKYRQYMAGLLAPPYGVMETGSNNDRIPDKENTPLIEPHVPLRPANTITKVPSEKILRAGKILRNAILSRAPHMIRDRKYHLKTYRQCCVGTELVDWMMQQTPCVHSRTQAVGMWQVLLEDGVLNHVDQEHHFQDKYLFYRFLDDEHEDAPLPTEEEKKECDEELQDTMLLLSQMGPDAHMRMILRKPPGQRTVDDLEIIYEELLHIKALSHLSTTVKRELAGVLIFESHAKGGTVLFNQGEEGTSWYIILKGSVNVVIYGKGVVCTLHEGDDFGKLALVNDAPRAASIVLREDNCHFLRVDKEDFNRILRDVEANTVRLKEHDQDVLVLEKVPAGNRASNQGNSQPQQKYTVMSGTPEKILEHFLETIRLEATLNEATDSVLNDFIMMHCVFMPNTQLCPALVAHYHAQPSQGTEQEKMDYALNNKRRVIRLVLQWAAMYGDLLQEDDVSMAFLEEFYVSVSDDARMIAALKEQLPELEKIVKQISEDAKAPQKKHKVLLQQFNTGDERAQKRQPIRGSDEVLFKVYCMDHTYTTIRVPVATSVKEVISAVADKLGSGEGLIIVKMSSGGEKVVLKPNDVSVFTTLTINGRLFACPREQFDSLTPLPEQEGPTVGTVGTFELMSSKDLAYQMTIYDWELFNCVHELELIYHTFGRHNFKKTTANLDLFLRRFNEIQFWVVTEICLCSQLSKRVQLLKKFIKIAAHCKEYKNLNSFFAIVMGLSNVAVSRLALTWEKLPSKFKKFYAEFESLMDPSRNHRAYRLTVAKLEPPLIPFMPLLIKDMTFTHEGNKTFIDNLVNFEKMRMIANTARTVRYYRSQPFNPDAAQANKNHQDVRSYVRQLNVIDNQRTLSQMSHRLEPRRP

SMILES: Nc1c(C(=O)Nc2ccc(F)cc2)sc2nc(-c3cccs3)cc(-c3ccccc3)c12 [AM-001, 3-amino-N-(4-fluorophenyl)-4-phenyl-6-(thiophen-2-yl)thieno[2,3-b]pyridine-2-carboxamide]
- antagonist effect on Epac2 (Epac2): no antagonist effect
- FGFR1 mRNA level [1, 11]: significantly decreasing
- TNC mRNA level [1, 11]: trend decrease
- upregulation of fibrosis and hypertrophic gene markers (ANP, BNP, β-MHC) in RV ([1]; BLM-challenged mice, RV tissues): compromised
- COLI mRNA level in lung samples [1, 12]: markedly reduced
- COLIII mRNA level in lung samples [1, 12]: markedly reduced
- CTGF mRNA level in lung samples [1, 12]: markedly reduced
- TGFβ mRNA level in lung samples [1, 12]: markedly reduced
- right ventricular systolic pressure (RVSP) ([2]; BLM 4 U/kg intratracheal, vs control group): reduction
- RV hypertrophy (Fulton Index) ([2]; BLM-challenged mice): significantly decreased
- inhibitory activity toward Epac1 (Epac1): selective inhibitory activity
- antagonist effect on protein kinase A (PKA) activity (protein kinase A (PKA)): no antagonist effect
- FOXO3 mRNA expression (IPF fibroblasts [3]): restored
- IL-6 mRNA expression (IPF fibroblasts [3]): attenuates
- α-SMA mRNA expression (IPF fibroblasts [3]): attenuates
- mRNA expression of fibrosis markers (COL1, COL3, CTGF, TGFβ) induced by TGFβ [4]: impaired the upregulation
- cardioprotection against myocardial I/R injury and detrimental effects of chronic β-AR activation [5]: cardioprotective properties
- proliferation of NHLFs (BrdU) [6]: inhibited
- phosphorylation of AKT (IPF fibroblasts [7]): decreased
- phosphorylation of SMAD2/3 (IPF fibroblasts [7]): decreased
- phosphorylation of STAT3 (IPF fibroblasts [7]): decreased
- IPF fibroblasts proliferation (BrdU) (IPF fibroblasts [8]): decrease
- pulmonary vascular remodeling (medial thickness of distal pulmonary arteries) ([9]; BLM mice, vs vehicle-treated BLM mice): markedly diminished
- cardiomyocyte size in RV (WGA staining) [9, 12]: reduction
- interstitial and perivascular fibrosis (Masson's trichrome) ([9]; BLM-challenged mice, 10 mg/kg i.p. every alternate day for 2 weeks, vs vehicle): significantly decreased

SMILES: CC1CCc2c(cc(Br)c(F)c2Br)N1C=O (stereo not shown) [CE3F4]
- biodisponibility [10]: low
- mRNA expression of fibrosis markers (COL1, COL3, CTGF, TGFβ) induced by TGFβ [4]: impaired the induction
- proliferation of NHLFs (BrdU) [6]: significantly decreased
